# Test results reported in patent US5968903A, “Inhibition of H. pylori proliferation” (Biomeasure, Incorporated, priority 1998, dated 1999).
# Where two headings read alike, the source gives them in different places. Positions of bridges follow the written chain, without caps; N, C: chain ends. Non-standard residues stand in square brackets, D forms with d. Residues, ends and D or L forms follow the SMILES beside them. *: point of attachment. X1 = O=C(CN1CCN(CCO)CC1)*
# Key:
# human SSTR-1 = human SSTR-1 (Homo sapiens, UniProt P30872); assay: Somatostatin receptor binding assay, hSSTR-1
# Chain of human SSTR-1 (P30872 whole entry): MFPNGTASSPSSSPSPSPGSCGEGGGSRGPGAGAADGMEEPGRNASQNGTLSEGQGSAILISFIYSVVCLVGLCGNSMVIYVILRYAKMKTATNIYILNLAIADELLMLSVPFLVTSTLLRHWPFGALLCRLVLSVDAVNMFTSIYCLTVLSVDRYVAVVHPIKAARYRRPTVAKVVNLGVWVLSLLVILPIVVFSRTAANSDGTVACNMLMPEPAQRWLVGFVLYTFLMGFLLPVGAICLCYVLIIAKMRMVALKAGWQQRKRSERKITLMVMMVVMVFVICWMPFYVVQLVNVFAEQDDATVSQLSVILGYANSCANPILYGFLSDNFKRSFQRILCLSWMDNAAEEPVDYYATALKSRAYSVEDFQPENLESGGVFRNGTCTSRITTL
# human SSTR-2 = human SSTR-2 (Homo sapiens, UniProt P30874); assay: Somatostatin receptor binding assay, hSSTR-2
# Chain of human SSTR-2 (P30874 whole entry): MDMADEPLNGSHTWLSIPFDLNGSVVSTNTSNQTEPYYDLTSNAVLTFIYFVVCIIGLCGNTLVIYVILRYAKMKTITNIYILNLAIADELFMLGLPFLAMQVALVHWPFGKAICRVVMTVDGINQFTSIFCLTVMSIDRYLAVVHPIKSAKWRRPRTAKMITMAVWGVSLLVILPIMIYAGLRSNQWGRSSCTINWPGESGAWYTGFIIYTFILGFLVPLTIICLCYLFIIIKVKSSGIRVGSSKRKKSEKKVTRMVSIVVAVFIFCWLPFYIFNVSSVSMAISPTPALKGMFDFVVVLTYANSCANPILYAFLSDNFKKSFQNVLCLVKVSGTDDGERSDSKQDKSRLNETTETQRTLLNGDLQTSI
# human SSTR-3 = human SSTR-3 (Homo sapiens, UniProt P32745); assay: Somatostatin receptor binding assay, hSSTR-3
# Chain of human SSTR-3 (P32745 whole entry): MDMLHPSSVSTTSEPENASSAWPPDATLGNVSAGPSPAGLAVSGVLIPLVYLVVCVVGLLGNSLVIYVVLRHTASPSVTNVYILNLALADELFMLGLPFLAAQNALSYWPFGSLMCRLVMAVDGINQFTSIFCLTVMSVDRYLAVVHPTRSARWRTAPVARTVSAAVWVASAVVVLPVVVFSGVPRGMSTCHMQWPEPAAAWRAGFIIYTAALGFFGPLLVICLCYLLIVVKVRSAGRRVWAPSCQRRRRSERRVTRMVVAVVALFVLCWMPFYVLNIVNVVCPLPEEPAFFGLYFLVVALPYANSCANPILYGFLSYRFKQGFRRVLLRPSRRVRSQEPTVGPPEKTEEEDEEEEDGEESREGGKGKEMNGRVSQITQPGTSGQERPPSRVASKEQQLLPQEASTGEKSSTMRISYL
# H. pylori ATCC43504 [1] = assay: H. pylori proliferation in Brucella broth, strain ATCC43504; format: cell-based; conditions: for ATCC43504 bacteria number: 10^-11 mol/L, 48 h
# human SSTR-5 = human SSTR-5 (Homo sapiens, UniProt P35346); assay: Somatostatin receptor binding assay, hSSTR-5
# Chain of human SSTR-5 (P35346 whole entry): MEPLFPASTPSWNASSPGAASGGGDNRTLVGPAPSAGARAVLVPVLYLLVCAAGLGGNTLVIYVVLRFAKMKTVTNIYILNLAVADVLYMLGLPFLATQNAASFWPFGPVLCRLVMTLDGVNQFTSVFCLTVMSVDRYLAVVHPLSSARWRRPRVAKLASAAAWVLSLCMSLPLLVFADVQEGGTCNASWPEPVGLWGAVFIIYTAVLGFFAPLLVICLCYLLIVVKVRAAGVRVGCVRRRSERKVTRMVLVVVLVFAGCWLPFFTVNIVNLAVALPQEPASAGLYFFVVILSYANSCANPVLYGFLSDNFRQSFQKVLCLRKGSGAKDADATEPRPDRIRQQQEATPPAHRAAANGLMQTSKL
# human SSTR-4 = human SSTR-4 (Homo sapiens, UniProt P31391); assay: Somatostatin receptor binding assay, hSSTR-4
# Chain of human SSTR-4 (P31391 whole entry): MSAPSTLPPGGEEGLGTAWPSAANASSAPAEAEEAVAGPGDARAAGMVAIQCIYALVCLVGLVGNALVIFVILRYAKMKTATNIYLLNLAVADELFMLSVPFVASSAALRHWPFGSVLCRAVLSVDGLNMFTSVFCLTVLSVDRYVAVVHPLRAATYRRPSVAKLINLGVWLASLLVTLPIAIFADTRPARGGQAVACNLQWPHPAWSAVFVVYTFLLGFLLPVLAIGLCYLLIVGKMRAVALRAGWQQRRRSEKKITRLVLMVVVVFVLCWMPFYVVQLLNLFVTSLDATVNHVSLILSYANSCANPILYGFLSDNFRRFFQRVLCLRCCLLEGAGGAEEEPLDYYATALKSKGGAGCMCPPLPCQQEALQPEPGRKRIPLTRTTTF
# H. pylori ATCC43504 [2] = conditions: ATCC43504, 48 h
# [3] = [125I-Tyr11]somatostatin-14, CHO-K1 membranes, read-out: Ki hSSTR-1
# [4] = [125I-Tyr11]somatostatin-14, CHO-K1 membranes, read-out: Ki hSSTR-2
# [5] = [125I-Tyr11]somatostatin-14, CHO-K1 membranes, read-out: Ki hSSTR-3
# [6] = [125I-Tyr11]somatostatin-14, CHO-K1 membranes
compound,measurement,setting,value
"C[C@@H](O)[C@H](NC(=O)[C@@H]1CSSC[C@H](NC(=O)[C@H](N)Cc2ccc3ccccc3c2)C(=O)N[C@@H](Cc2ccc(O)cc2)C(=O)N[C@H](Cc2c[nH]c3ccccc23)C(=O)N[C@@H](CCCCN)C(=O)N[C@@H]([C@@H](C)O)C(=O)N1)C(N)=O [Example 1, H-D-β-Nal-Cys-Tyr-D-Trp-Lys-Thr-Cys-Thr-NH2]",Ki,human SSTR-1,2410 nM
same,Ki,human SSTR-2,0.75 nM
same,Ki,human SSTR-3,97.9 nM
"CC(C)[C@@H]1NC(=O)[C@H](CCCCN)NC(=O)[C@@H](Cc2c[nH]c3ccccc23)NC(=O)[C@H](Cc2ccc(O)cc2)NC(=O)[C@H](C)N(C)C(=O)[C@H](Cc2ccccc2)NC1=O [Example 76, cyclo(N-Me-Ala-Tyr-D-Trp-Lys-Val-Phe)]",affinity for type 2 (in words),human SSTR-2,high affinity
same,ATCC43504 bacteria number,H. pylori ATCC43504 [1],2.7 ± 1.3 ×10^5 CFU/mL
"C[C@@H](O)[C@@H]1NC(=O)[C@H](CCCCN)NC(=O)[C@@H](Cc2c[nH]c3ccccc23)NC(=O)[C@H](Cc2ccccc2)NC(=O)[C@H](Cc2ccccc2)NC(=O)[C@@H](N)CSSC[C@@H](C(N)=O)NC(=O)[C@H](Cc2ccccc2)NC1=O [Example 107, H-Cys-Phe-Phe-D-Trp-Lys-Thr-Phe-Cys-NH2] (H-CFF[dW]KTFC-NH2; disulfide 1-8 (inferred))",affinity for type 1 (in words),human SSTR-1,some affinity
same,affinity for type 3 (in words),human SSTR-3,some affinity
same,affinity for type 5 (in words),human SSTR-5,high affinity
same,ATCC43504 bacteria number,H. pylori ATCC43504 [1],6.5 ± 0.7 ×10^5 CFU/mL
"NCCCC[C@@H]1NC(=O)[C@@H](Cc2c[nH]c3ccccc23)NC(=O)[C@H](Cc2ccccc2)NC(=O)[C@H](Cc2ccccc2)NC(=O)[C@@H](N)CSSC[C@@H](C(N)=O)NC(=O)[C@H](Cc2ccccc2)NC(=O)[C@H](CO)NC1=O [Example 108, H-Cys-Phe-Phe-D-Trp-Lys-Ser-Phe-Cys-NH2] (H-CFF[dW]KSFC-NH2; disulfide 1-8 (inferred))",Ki,human SSTR-1; [3],27.9 nM
same,Ki,human SSTR-2; [4],19.3 nM
same,Ki,human SSTR-3; [5],35.6 nM
same,Ki,human SSTR-5; [6],0.85 nM
"C[C@@H](O)[C@@H]1NC(=O)[C@H](CCCCN)NC(=O)[C@@H](Cc2c[nH]c3ccccc23)NC(=O)[C@H](Cc2ccc(O)cc2)NC(=O)[C@H](Cc2ccccc2)NC(=O)[C@@H](N)CSSC[C@@H](C(N)=O)NC(=O)[C@H](Cc2ccccc2)NC1=O [Example 109, H-Cys-Phe-Tyr-D-Trp-Lys-Thr-Phe-Cys-NH2] (H-CFY[dW]KTFC-NH2; disulfide 1-8 (inferred))",Ki,human SSTR-1; [3],86.9 nM
same,affinity for type 2 (in words),human SSTR-2,high affinity
same,Ki,human SSTR-2; [4],6.19 nM
same,affinity for type 3 (in words),human SSTR-3,high affinity
same,Ki,human SSTR-3; [5],9.7 nM
same,affinity for type 4 (in words),human SSTR-4,high affinity
same,Ki,human SSTR-5; [6],0.34 nM
same,ATCC43504 bacteria number,H. pylori ATCC43504 [1],1.4 ± 0.5 ×10^5 CFU/mL
"C[C@@H](O)[C@H](NC(=O)[C@H](Cc1ccccc1)NC(=O)[C@@H](NC(=O)[C@H](CCCCN)NC(=O)[C@@H](Cc1c[nH]c2ccccc12)NC(=O)[C@H](Cc1ccccc1)NC(=O)[C@H](Cc1ccccc1)NC(=O)[C@H](N)Cc1ccccc1)[C@@H](C)O)C(N)=O [Example 114, H-D-Phe-Phe-Phe-D-Trp-Lys-Thr-Phe-Thr-NH2] (H-[dF]FF[dW]KTFT-NH2)",affinity for type 3 (in words),human SSTR-3,high affinity
same,affinity for type 5 (in words),human SSTR-5,high affinity
same,ATCC43504 bacteria number,H. pylori ATCC43504 [1],9.8 ± 2.0 ×10^5 CFU/mL
C[C@@H](O)[C@H](NC(=O)[C@H](Cc1ccccc1)NC(=O)[C@@H](NC(=O)[C@H](CCCCN)NC(=O)[C@@H](Cc1c[nH]c2ccccc12)NC(=O)[C@H](Cc1ccccc1)NC(=O)[C@H](Cc1ccccc1)NC(=O)[C@@H](Cc1ccccc1)NC(=O)CN1CCN(CCO)CC1)[C@@H](C)O)C(N)=O [Example 118] (X1-[dF]FF[dW]KTFT-NH2),Ki,human SSTR-1; read-out: Ki hSSTR-1,47.7 nM
same,Ki,human SSTR-2; read-out: Ki hSSTR-2,3.23 nM
same,Ki,human SSTR-3; read-out: Ki hSSTR-3,10.9 nM
same,Ki,human SSTR-4,753 nM
same,Ki,human SSTR-5,1.01 nM
C[C@H](N)C(=O)NCC(=O)N[C@H]1CSSC[C@@H](C(=O)O)NC(=O)[C@H](CO)NC(=O)[C@H]([C@@H](C)O)NC(=O)[C@H](Cc2ccccc2)NC(=O)[C@H]([C@@H](C)O)NC(=O)[C@H](CCCCN)NC(=O)[C@H](Cc2c[nH]c3ccccc23)NC(=O)[C@H](Cc2ccccc2)NC(=O)[C@H](Cc2ccccc2)NC(=O)[C@H](CC(N)=O)NC(=O)[C@H](CCCCN)NC1=O [somatostatin],decrease of bacteria number / suppression of ATCC43504 proliferation,H. pylori ATCC43504 [1],49%
same,inhibition of ATCC43504 proliferation (in words),H. pylori ATCC43504 [1],inhibited proliferation of ATCC43504 in a dose-dependent manner
same,NCTC11638 bacteria number,H. pylori NCTC11638,1.6±0.2 ×10^6 CFU/mL
same,inhibition of NCTC11638,"H. pylori NCTC11638; NCTC11638, 48 h",90%
same,NCTC11916 bacteria number,H. pylori NCTC11916,2.6±0.2 ×10^6 CFU/mL
same,inhibition of NCTC11916,"H. pylori NCTC11916; NCTC11916, 48 h",79%
same,inhibition of H. pylori proliferation by somatostatin,H. pylori ATCC43504 [2],88%
